Experiments:
[1] = tested on: Echinochloa crus-galli, Setaria viridis, Stellaria media und Veronica persica; test: Pre-emergence weed control, greenhouse pot test; assay type: in vivo; details: Aufwandmenge von 1,28 kg oder weniger Aktivsubstanz pro Hektar, visual rating after 3 bis 4 Wochen vs untreated controls
Source text: Samen bzw. Rhizomstücke von mono- und dikotylen Unkrautpflanzen wurden in Plastiktöpfen in sandiger Lehmerde ausgelegt und mit Erde abgedeckt. Die in Form von benetzbaren Pulvern oder Emulsionskonzentraten formulierten erfindungsgemäßen Verbindungen wurden dann als wäßrige Suspension bzw. Emulsion mit einer Wasseraufwandmenge von umgerechnet 600 bis 800 l/ha in unterschiedlichen Dosierungen auf die Oberfläche der Abdeckerde appliziert.
Nach der Behandlung wurden die Töpfe im Gewächshaus aufgestellt und unter guten Wachstumsbedingungen für die Unkräuter gehalten. Die optische Bonitur der Pflanzen- bzw. Auflaufschäden erfolgte nach dem Auflaufen der Versuchspflanzen nach einer Versuchszeit von 3 bis 4 Wochen im Vergleich zu unbehandelten Kontrollen. Wie die Testergebnisse zeigten, wiesen die erfindungsgemäßen Verbindungen eine gute herbizide Vorauflaufwirksamkeit gegen ein breites Spektrum von Ungräsern und Unkräutern auf.

[2] = tested on: Echinochloa crus-galli, Setaria viridis, Abuthilon theophrasti, Amaranthus retroflexus und Veronica persica; test: Post-emergence weed control, greenhouse pot test; assay type: in vivo; details: three-leaf stage, Aufwandmenge von 1,28 kg und weniger Aktivsubstanz pro Hektar, visual rating after ca. 3 bis 4 Wochen vs untreated controls
Source text: Samen bzw. Rhizomstücke von mono- und dikotylen Unkräutern wurden in Plastiktöpfen in sandigem Lehmboden ausgelegt, mit Erde abgedeckt und im Gewächshaus unter guten Wachstumsbedingungen angezogen. Drei Wochen nach der Aussaat wurden die Versuchspflanzen im Dreiblattstadium behandelt. Die als Spritzpulver bzw. als Emulsionskonzentrate formulierten erfindungsgemäßen Verbindungen wurden in verschiedenen Dosierungen mit einer Wasseraufwandmenge von umgerechnet 600 bis 800 I/ha auf die grünen Pflanzenteile gesprüht. Nach ca. 3 bis 4 Wochen Standzeit der Versuchspflanzen im Gewächshaus unter optimalen Wachstumsbedingungen wurde die Wirkung der Präparate optisch im Vergleich zu unbehandelten Kontrollen bonitiert. Die erfindungsgemäßen Mittel wiesen auch im Nachauflauf eine gute herbizide Wirksamkeit gegen ein breites Spektrum wirtschaftlich wichtiger Ungräser und Unkräuter auf. Beispielsweise zeigten die Beispiele Nr.

Experimental for physchem: "LogP" = Verteilungskoeffizient in einem Zweiphasengemisch aus n-Octanol und Wasser.
Die log P-Daten wurden in Übereinstimmung mit der EEC Direktive 79/831, Anlage V.A8 (Annex V.A8) mittels HPLC (High Performance Liquid Chromatography) auf einer Umkehrphase-Säule (reversed-phase column) (C18) mit folgenden Methoden bestimmt: Temperatur: 40°C; Mobile Phase: 0,1 % bzw. 0,06 %ige wässrige Ameisensäure oder 0,1 % wässriger Phosphorsäure und Acetonitril; linearer Gradient von 10% Acetonitril bis 90% bzw. 95 % Acetonitril. Die Kalibrierung wurde ausgeführt mit Hilfe unverzweigter Alkan-2-one (bestehend aus 3 bis 13 bzw.16 Kohlenstoff-Atomen) mit bekannten IogP-Werten (Bestimmung der IogP-Werte über die Retentionszeiten mittels linearer Interpolation zwischen zwei nachfolgenden Alkanonen).

Compound	herbizide Wirkung gegen Schadpflanzen im Vorauflaufverfahren [1]	herbizide Wirkung gegen Schadpflanzen im Nachauflaufverfahren [2]	chromatographic logP (physchem)
COc1ccccc1C=NOC(C)C#Cc1cccc(SC)c1 (centres unmarked) [Beispiel 1.301]	sehr gute herbizide Wirkung	sehr gute herbizide Wirkung	4.85
Cc1cccc(C=NOC(C)C#Cc2cccc([S+](C)[O-])c2)n1 (centres unmarked) [Beispiel 3.086]	sehr gute herbizide Wirkung	sehr gute herbizide Wirkung	1.57
COc1nc(Cl)cnc1C=NOCC#Cc1cccc([S+](C)[O-])c1 (centres unmarked) [Beispiel 4.106]	–	–	2.21
COc1ncc(C=NOCC#Cc2cccc(SC)c2)cc1F [Beispiel 5.040]	sehr gute herbizide Wirkung	sehr gute herbizide Wirkung	4.23
COc1ncc(C=NOCC#Cc2cccc([S+](C)[O-])c2)cc1F (centres unmarked) [Beispiel 5.041]	sehr gute herbizide Wirkung	sehr gute herbizide Wirkung	2.28
COc1ncc(C=NOCC#Cc2cccc(CC#N)c2)cc1F [Beispiel 5.044]	–	–	3.24
COc1ccc(C=NOCC#Cc2cccc(SC)c2)cn1 [Beispiel 5.120]	sehr gute herbizide Wirkung	sehr gute herbizide Wirkung	4
COc1ccc(C=NOCC#Cc2cccc(S(C)(=O)=O)c2)cn1 [Beispiel 5.122]	–	–	2.5
COc1ccc(C=NOCC#Cc2ccc(F)c(SC)c2)cn1 [Beispiel 5.125]	–	–	2.94
COc1ccc(C=NOCC#Cc2ccc(C#N)c(SC)c2)cn1 [Beispiel 5.126]	–	–	3.49
CCSc1cccc(C#CCON=Cc2ccc(OC)nc2)c1 [Beispiel 5.127]	–	–	4.34
CCSc1cc(C#CCON=Cc2ccc(OC)nc2)ccc1OC [Beispiel 5.131]	–	–	4.03
CC[S+]([O-])c1cc(C#CCON=Cc2ccc(OC)nc2)ccc1OC (centres unmarked) [Beispiel 5.132]	–	–	2.42
CCSc1cc(C#CCON=Cc2ccc(OC)nc2)ccc1C [Beispiel 5.133]	–	–	4.9
CC[S+]([O-])c1cc(C#CCON=Cc2ccc(OC)nc2)ccc1C (centres unmarked) [Beispiel 5.134]	–	–	2.51
COc1ccc(C=NOCC#Cc2cccc(OC(F)(F)F)c2)cn1 [Beispiel 5.135]	–	–	4.26
COc1ccc(C=NOCC#Cc2cccc(SC(C)C)c2)cn1 [Beispiel 5.136]	–	–	4.8
C=CCSc1cccc(C#CCON=Cc2ccc(OC)nc2)c1 [Beispiel 5.137]	–	–	4.72
COc1ccc(C=NOCC#Cc2ccc(OC)c(SC)c2)cn1 [Beispiel 5.138]	–	–	3.83
COc1ccc(C=NOCC#Cc2ccc(F)c(SC)c2F)cn1 [Beispiel 5.139]	–	–	4.1
COc1ccc(C=NOCC#Cc2ccc(F)c([S+](C)[O-])c2F)cn1 (centres unmarked) [Beispiel 5.140]	–	–	2.17
COc1ccc(C=NOCC#Cc2ccc(F)c(F)c2)cn1 [Beispiel 5.141]	–	–	3.83
COc1ccc(C=NOCC#Cc2cc(C)c(F)c(SC)c2)cn1 [Beispiel 5.142]	–	–	4.54
COc1ccc(C=NOCC#Cc2ccccc2SC)cn1 [Beispiel 5.143]	–	–	3.79
COc1ccc(C=NOCC#Cc2cc(C)c(F)c([S+](C)[O-])c2)cn1 (centres unmarked) [Beispiel 5.144]	–	–	2.76
COc1ccc(C=NOCC#Cc2ccccc2[S+](C)[O-])cn1 (centres unmarked) [Beispiel 5.145]	–	–	2.19
COc1ccc(C=NOCC#Cc2ccc(F)c(F)c2SC)cn1 [Beispiel 5.146]	–	–	4.11

Compound	herbizide Wirkung gegen Schadpflanzen im Vorauflaufverfahren [1]	herbizide Wirkung gegen Schadpflanzen im Nachauflaufverfahren [2]	chromatographic logP (physchem)
COc1ccc(C=NOCC#Cc2ccc(F)c(F)c2[S+](C)[O-])cn1 (centres unmarked) [Beispiel 5.147]	–	–	2.17
COc1ccc(C=NOCC#Cc2cc(SC)c(F)c(SC)c2)cn1 [Beispiel 5.148]	–	–	4.57
COc1ncccc1C=NOCC#Cc1ccc(C)c([S+](C)[O-])c1 (centres unmarked) [Beispiel 5.168]	–	–	2.42
Cc1ccc(C#CCON=Cc2cccnc2)cc1[S+](C)[O-] (centres unmarked) [Beispiel 5.170]	–	–	1.37
CCOc1ncccc1C=NOCC#Cc1ccc(C)c([S+](C)[O-])c1 (centres unmarked) [Beispiel 5.171]	–	–	2.83
CSc1cccc(C#CCON=Cc2ccc(OC(C)C)nc2)c1 [Beispiel 5.177]	sehr gute herbizide Wirkung	sehr gute herbizide Wirkung	4.87
CC(C)Oc1ccc(C=NOCC#Cc2cccc(CC#N)c2)cn1 [Beispiel 5.178]	–	–	3.69
CC(C)Oc1ccc(C=NOCC#Cc2cccc([S+](C)[O-])c2)cn1 (centres unmarked) [Beispiel 5.181]	sehr gute herbizide Wirkung	sehr gute herbizide Wirkung	2.77
COc1ccc(C=NOCC#Cc2cccc(SC)c2)c(OC)n1 [Beispiel 5.183]	–	–	4.93
COc1ccc(C=NOCC#Cc2cccc(CC#N)c2)c(OC)n1 [Beispiel 5.184]	–	–	3.79
COc1ccc(C=NOCC#Cc2cccc([S+](C)[O-])c2)c(OC)n1 (centres unmarked) [Beispiel 5.185]	–	sehr gute herbizide Wirkung	2.89
CSc1cccc(C#CCON=Cc2ccc(SC)nc2)c1 [Beispiel 5.186]	–	–	4.22
CSc1ccc(C=NOCC#Cc2cccc(CC#N)c2)cn1 [Beispiel 5.187]	–	–	3.18
CSc1ccc(C=NOCC#Cc2cccc([S+](C)[O-])c2)cn1 (centres unmarked) [Beispiel 5.188]	–	sehr gute herbizide Wirkung	2.23
CCOc1ccc(C=NOCC#Cc2cccc([S+](C)[O-])c2)cn1 (centres unmarked) [Beispiel 5.189]	sehr gute herbizide Wirkung	sehr gute herbizide Wirkung	2.42
CCOc1ccc(C=NOCC#Cc2cccc(SC)c2)cn1 [Beispiel 5.190]	sehr gute herbizide Wirkung	sehr gute herbizide Wirkung	4.42
CSc1cccc(C#CCON=Cc2ccc(OCC(F)(F)F)nc2OCC(F)(F)F)c1 [Beispiel 5.191]	–	–	5.08
N#CCc1cccc(C#CCON=Cc2ccc(OCC(F)(F)F)nc2OCC(F)(F)F)c1 [Beispiel 5.192]	–	–	4.03
C[S+]([O-])c1cccc(C#CCON=Cc2ccc(OCC(F)(F)F)nc2OCC(F)(F)F)c1 (centres unmarked) [Beispiel 5.193]	–	–	3.4
CSc1cccc(C#CCON=Cc2ccc(C3CCCC3)nc2)c1 [Beispiel 5.194]	–	–	5.44
N#CCc1cccc(C#CCON=Cc2ccc(C3CCCC3)nc2)c1 [Beispiel 5.195]	–	–	4.27
C[S+]([O-])c1cccc(C#CCON=Cc2ccc(C3CCCC3)nc2)c1 (centres unmarked) [Beispiel 5.196]	–	–	3.43
COc1ncc(C=NOCC#Cc2cccc(SC)c2)cc1Br [Beispiel 5.197]	–	–	4.81
COc1ncc(C=NOCC#Cc2cc(SC)c(F)c(SC)c2)cc1F [Beispiel 5.198]	–	–	4.65
CCOc1ncc(C=NOCC#Cc2cccc(SC)c2)cc1F [Beispiel 5.199]	–	–	4.68
CS(=O)(=O)c1ccc(C=NOCC#Cc2cccc(CC#N)c2)cn1 [Beispiel 5.200]	–	–	2.18
COc1ccccc1-c1ccn(CC#Cc2cccc(SC)c2)n1 [Beispiel 6.050]	–	–	3.43

Reference: patent publication EP2017264A1, “Substituted phenyl propargyl compounds, method for their manufacture and their use as herbicides and plant growth regulators” (BAYER CROPSCIENCE AG, priority 2007, dated 2009)
